Test results from patent publication US20210177952A1, “METHOD AND COMPOSITION FOR STIMULATING IMMUNE RESPONSE” (BeyondSpring Pharmaceuticals, Inc., priority 2018, published 2021).

Test system: ovalbumin IgG1
Experiment: Serum anti-ovalbumin IgG1 ELISA after OVA/CFA immunization of mice
Assay type: in vivo, Mouse, C57BL6
Settings: for anti-OVA IgG1 concentrations in serum: 7.5 and 10 mg/kg IP BID for a single day, 3, 6, 14 or 28 days after immunization, Day 30 and Day 62 samples
Protocol: A study was performed to evaluate the effect of plinabulin on boosting B-cell response to immunization. Samples were prepared using an emulsion of complete Freund's adjuvant (CFA) with the foreign protein ovalbumin (OVA), each with varying concentrations of plinabulin (plinabulin doses range from 0.01 mg to 30 mg), and the control was prepared with no plinabulin added. Normal healthy mice were immunized by subcutaneous injection of the CFA+OVA emulsion +/−plinabulin, and/or intraperitoneal injection of ALUM+OVA adjuvant +/−plinabulin (n=5 mice per plinabulin dose group). At different time points as discussed below in this Example, the animals were bled to collect serum for evaluating the concentration of IgG that binds OVA in the serum.
DOSE PREPARATION OF OVALBUMIN EMULSIONS IN COMPLETE FREUND'S ADJUVANT: EndoFit™ Ovalbumin Kit (InvivoGen, USA), containing 10 mg powder in one glass vial and 10 mL of sterile endotoxin-free physiological water in one glass vial, and CFA 10 mL in one glass vial were received in good condition and stored at 2-8° C. until Day 1. The sterile endotoxin-free saline solution was allowed to reach room temperature before use. Inside a BSL2 cabinet, 5 mL sterile water was added into the vial containing 10 mg of OVA and gently agitated to obtain a homogenous 2 mg/mL OVA solution. To 2.5 mL of CFA, 2.5 mL of OVA solution was added; and the mixture was emulsified by vigorously mixing into two connected 10 mL locking syringes to prepare a 1 mg/mL OVA/CFA emulsion. The emulsification was kept chilled by placing the apparatus into crushed ice for 5 minutes, then mixing and cooling was repeated an additional two times. Stability of the emulsion was tested by adding a drop into water to verify that the emulsion would not dissipate. The emulsion was transferred into five 1 mL syringes for injection and kept cool on crushed ice until immunization. The emulsification processes were repeated with an additional 2.5 mL of OVA solution and 2.5 mL of CFA during immunization of animals to use within 4 hours of preparation.
DOSE PREPARATION OF TEST ARTICLES: Plinabulin solution (Plin-A) at a 0.75 mg/mL was prepared on each day of dosing. Plinabulin powder (3 mg) was weighed into a separate light protected amber vial at room temperature. Using a micropipette, 284 μL of Tween-80 was added to the amber vial and vortex for 1 minute. 1,020 μL of propylene glycol was added to the amber vial and vortexed for 15 minutes, then sonicated in a water bath for 30 minutes. Finally, 2,696 μL of 5% dextrose in water was added to the solution and vortexed for 3 minutes to achieve 4 mL of a 0.75 mg/mL plinabulin solution. Plinabulin solution (Plin-B) at a 1.0 mg/mL was prepared on each day of dosing. Plinabulin powder (3 mg) was weighed into a separate light protected amber vial at room temperature. Using a micropipette, 213 μL of Tween-80 was added to the amber vial and vortex for 1 minute. 765 μL of propylene glycol was added to the amber vial and vortex for 15 minutes, then sonicated in a water bath for 30 minutes. Finally, 2,022 μL of 5% dextrose in water was added to the solution and vortexed for 3 minutes to achieve 3 mL of a 1.0 mg/mL plinabulin solution.
ANTI-OVALBUMIN ASSAY: Mouse anti-OVA IgG1 ELISA kits (Cayman Chemical, USA) were purchased to perform the assay. Serum samples from Day 30 were assayed in 1-to-2,000, 1-to-6,000 and 1-to-20,000 dilution. Serum samples from Day 62 were assayed in 1-to-2,000 and 1-to-20,000 dilution. […]

CC(C)(C)c1[nH]cnc1/C=c1\[nH]c(=O)/c(=C/c2ccccc2)[nH]c1=O [Plinabulin, (3Z,6Z)-3-Benzylidene-6-{[5-(2-methyl-2-propanyl)-1H-imidazol-4-yl]methylene}-2,5-piperazinedione]
anti-OVA IgG1 concentrations in serum: inhibitory effects on anti-OVA in 4 out of 5 subgroups
anti-OVA IgG1 concentrations in serum (listed as plinabulin): significantly reduced, or tended to be reduced
concentration of anti-OVA IgG in serum versus immunization without plinabulin (mice immunized with CFA+OVA or ALUM+OVA +/- plinabulin): higher concentrations of anti-OVA IgG
OVA IgG1 production in serum on Day 62 (subgroup 1: 7.5 mg/kg IP BID, 1 hour after immunization, Day 62): significantly increased OVA IgG1 production
production of OVA IgG1 in serum on Day 30 (subgroup 1: plinabulin IP BID 3 hours apart, 1 hour after OVA/CFA immunization, Day 30): dose-dependently increased the production of OVA IgG1 on Day 30 without reaching statistical significance
